{
  "source": "paper PMC8864676",
  "about": "(Organic & biomolecular chemistry, 2022)",
  "key": {"[1]": {"molecular_target": "T1, PutA86–630 (PRODH domain of proline utilization A) (Escherichia coli, UniProt P09546)", "T1 sequence (P09546 86-630)": "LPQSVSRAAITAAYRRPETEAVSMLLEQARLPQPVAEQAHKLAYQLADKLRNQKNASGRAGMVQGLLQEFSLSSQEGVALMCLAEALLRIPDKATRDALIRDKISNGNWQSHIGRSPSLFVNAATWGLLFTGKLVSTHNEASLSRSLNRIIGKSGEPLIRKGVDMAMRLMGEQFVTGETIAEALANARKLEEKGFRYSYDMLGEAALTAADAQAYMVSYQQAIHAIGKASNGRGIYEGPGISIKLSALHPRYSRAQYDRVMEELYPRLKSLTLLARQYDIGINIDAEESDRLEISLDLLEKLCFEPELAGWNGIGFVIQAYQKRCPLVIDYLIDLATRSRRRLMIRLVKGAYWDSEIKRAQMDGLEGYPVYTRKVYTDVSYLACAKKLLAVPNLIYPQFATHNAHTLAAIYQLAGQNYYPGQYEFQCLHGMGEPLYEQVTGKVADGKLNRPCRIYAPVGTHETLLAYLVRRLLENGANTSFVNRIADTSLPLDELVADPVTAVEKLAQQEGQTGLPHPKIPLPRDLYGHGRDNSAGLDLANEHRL", "assay_type": "biochemical", "conditions": "for kcat: kcat of PutA86–630 from the global fit of the data set with this inhibitor; for ΔΔG, loss of binding energy relative to 1 / fold change in Ki relative to 1: chemical double mutant cycle; for fold change in Ki relative to 1: from Ki values"}, "[2]": {"molecular_target": "T1, PutA86–630 (PRODH domain of proline utilization A)", "experiment": "Initial single-point screening of compounds for inhibition of PRODH activity", "assay_type": "biochemical", "conditions": "for inhibition at 5000 µM: read-out: inhibition in the single-point assay; for inhibition in the single-point assay (in words): 13, 15, 16 compared with 1"}, "PRODH": {"molecular_target": "PRODH", "conditions": "cited from earlier work"}, "[3]": {"conditions": "5 mM inhibitor, 200 mM L-proline"}},
  "note": "Several values for one entry are separate records, joined by “and”; a condition that tells them apart may be missing. Equal entries are not always repeated.",
  "data": [
    {"compound": "O=C(O)C1CCC1", "note": "[Compound 3, cyclobutanecarboxylic acid]", "values": [
      {"measurement": "ΔΔG, improvement of affinity relative to 16", "setting": "[1]; cyclopentane of 16 decreased to cyclobutane, calculated from Ki values", "value": "0.71 kcal/mol and 0.7 kcal/mol"},
      {"measurement": "kcat", "setting": "[1]", "value": "1.47 ± 0.05", "unit": "s⁻¹"},
      {"measurement": "ΔΔG, loss of binding energy relative to 18", "setting": "[1]; removing the O heteroatom from 18, calculated from Ki values", "value": "about 0.2 kcal/mol"},
      {"measurement": "reduction of enzyme activity relative to the no-inhibitor control", "setting": "[2]; [3]", "value": "over 2 fold"},
      {"measurement": "inhibition at 5000 µM", "setting": "[2]", "value": "> 50", "unit": "%"}
    ]},
    {"compound": "O=C(O)C1CC1", "note": "[Compound 4, cyclopropanecarboxylic acid]", "values": [
      {"measurement": "kcat", "setting": "[1]", "value": "1.20 ± 0.03", "unit": "s⁻¹"},
      {"measurement": "ΔΔG, decrease of affinity relative to 3", "setting": "[1]; ring size decreased from cyclobutane to cyclopropane, calculated from Ki values", "value": 0.3, "unit": "kcal/mol"}
    ]},
    {"compound": "O=C1CC(C(=O)O)C1", "note": "[Compound 10, 3-oxocyclobutanecarboxylic acid]", "values": [
      {"measurement": "inhibition in the single-point assay (in words)", "setting": "[2]; [3]", "value": "very little inhibition"}
    ]},
    {"compound": "NC(=O)[C@@H]1CCCO1", "note": "[Compound 13, (S)-(−)-tetrahydrofuran-2-carboxamide]", "values": [
      {"measurement": "inhibition in the single-point assay (in words)", "setting": "[2]; [3]", "value": "decreases inhibition"}
    ]},
    {"compound": "O=C(O)C1CCCCO1", "note": "(centres unmarked) [Compound 15, tetrahydropyran-2-carboxylic acid]", "values": [
      {"measurement": "inhibition in the single-point assay (in words)", "setting": "[2]; [3]", "value": "severely decreases inhibition"}
    ]},
    {"compound": "O=C(O)C1CCCC1", "note": "[Compound 16, cyclopentanecarboxylic acid]", "values": [
      {"measurement": "ΔΔG, loss of binding energy relative to 1", "setting": "[1]; calculated from Ki values", "value": "~2", "unit": "kcal/mol"},
      {"measurement": "fold change in Ki relative to 1", "setting": "[1]", "value": 20, "unit": "fold"},
      {"measurement": "kcat", "setting": "[1]", "value": "1.35 ± 0.04", "unit": "s⁻¹"},
      {"measurement": "inhibition in the single-point assay (in words)", "setting": "[2]; [3]", "value": "severely decreases inhibition"}
    ]},
    {"compound": "CCC(=O)C(=O)O", "note": "[Compound 17, 2-oxobutyric acid]", "values": [
      {"measurement": "kcat", "setting": "[1]", "value": "1.14 ± 0.02", "unit": "s⁻¹"},
      {"measurement": "inhibition at 5000 µM", "setting": "[2]", "value": "> 50", "unit": "%"}
    ]},
    {"compound": "O=C(O)[C@@H]1CCO1", "note": "[Compound 18, (2S)-oxetane-2-carboxylic acid]", "values": [
      {"measurement": "ΔΔG, loss of binding energy relative to 1", "setting": "[1]; calculated from Ki values", "value": 0.95, "unit": "kcal/mol"},
      {"measurement": "fold change in Ki relative to 1", "setting": "[1]", "value": 5, "unit": "fold"},
      {"measurement": "kcat", "setting": "[1]", "value": "1.42 ± 0.04", "unit": "s⁻¹"},
      {"measurement": "reduction of enzyme activity relative to the no-inhibitor control", "setting": "[2]; [3]", "value": "over 2 fold"},
      {"measurement": "inhibition at 5000 µM", "setting": "[2]", "value": "> 50", "unit": "%"}
    ]},
    {"compound": "C[C@H](O)C(=O)O", "note": "[L-lactic acid]", "values": [
      {"measurement": "Ki", "setting": "PRODH", "value": "~1", "unit": "mM"}
    ]},
    {"compound": "CC(=O)O", "note": "[acetic acid]", "values": [
      {"measurement": "Ki", "setting": "PRODH", "value": "~30", "unit": "mM"}
    ]},
    {"compound": "(S)-(−)-tetrahydro-2-furoic acid [Compound 1, reference compound]", "values": [
      {"measurement": "kcat", "setting": "[1]", "value": "1.16 ± 0.03", "unit": "s⁻¹"},
      {"measurement": "enzyme activity relative to the no-inhibitor control", "setting": "[2]; [3]", "value": 12, "unit": "%"},
      {"measurement": "Ki", "setting": "PRODH", "value": "0.2 to 1", "unit": "mM"}
    ]}
  ]
}
